Results on one compound are retold here after patent US20040185110A1, “Formulations of low solubility bioactive agents and processes for making the same” (priority 2002, published 2004).

Molecules are shown by their SMILES.

A short description of this data set: Solubility of Compound A. The data set is classed as physicochemical. As to the method:
The present invention addresses the prior art issues of low bioavailability of certain drugs such as COX-2 selective inhibitors useful for the treatment of, for example, arthritis and rheumatic pain. […] Compound A, a COX-2 selective inhibitor, is a white to off-white odorless crystalline, anhydrous powder. At room temperature it is soluble in methylene chloride, and acetonitrile. […] The aqueous solubility of the drug is less than 2 µg/mL at 22 degrees Celsius at pH 6.2.

Take `CS(=O)(=O)c1ccc(/C(=C2\CCOC2=O)c2ccc(Br)cc2)cc1` [Compound A, (Z)-3-[1-(4-bromophenyl)-1-(4-methylsulfonylphenyl)methylidine]-dihydrofuran-2-one]: under “room temperature”, the “solubility in methylene chloride, and acetonitrile” value is listed as “soluble”. For the same compound, the solubility in water result (water) is listed as “poorly soluble”.
